Experimental data: publication PMC4884960, “Long lasting MDM2/Translocator protein modulator: a new strategy for irreversible apoptosis of human glioblastoma cells” (Oncotarget, 2016)

Experiments:
human TSPO [1] = target: T1, human TSPO (Homo sapiens, UniProt P30536); experiment: Equilibrium [3H]PK11195 radioligand binding assay in U87MG cell membranes
T1 construct: aliquots of U87MG cell membranes (20 μg of proteins) were incubated with [^3H]PK 11195 (1.5 nM); endogenous in cells; host or cells: U87MG human glioblastoma cell membranes
Description: Equilibrium radioligand binding assays were performed essentially as previously described. […] Samples were rapidly filtered under vacuum through GF/C glass fiber filters.

human TSPO [2] = target: T1, human TSPO; experiment: TSPO association/dissociation and competition kinetics with [3H]PK11195; format: binding; conditions: for Kd: calculated as ratio of estimated koff and kon
Text: Association and dissociation rate constants for [^3H]
For competition kinetics, the [^3H]

[3] = Stability test in aqueous solution by HPLC; format: physicochemical; conditions: 1 μM in PBS with 1% DMSO, within 72 h
Description: To test the stability of EB148 in aqueous solution, the compound was dissolved in DMSO and diluted with PBS to the final 1 μM concentration (the amount of DMSO in the final solution was 1%). The solution was maintained in a closed vial and analysed by HPLC at specific times (4, 8, 24, 48 and 72 h) using the following conditions: column Shim-pack VP-ODS 4.6 μm (250 mm × 4.6 mm), isocratic elution with water, flow rate of 1 ml/min, room temperature. The percentage of decomposition was calculated on the base of peak area of the product.

[4] = system: mitochondria isolated from U87MG cells; experiment: Mitochondrial membrane potential (Δψm) dissipation, JC-1 protocol; format: biochemical, human; conditions: 1 μM, 20 min; for JC-1 accumulation (Δψm) compared to control untreated mitochondria: isolated mitochondria
Description: The Δψm dissipation was assessed using the fluorescent dye 5,59,6,69-tetrachloro1,19,3,39-tetraethylbenzimidazolylcarbocyanine iodide (JC-1). Mitochondria were isolated from U87MG cells using the Mitochondria Isolation Kit (Sigma Aldrich, Milan, Italy) following manufacturer's instructions.
Isolated mitochondria were treated for 20 min with EB54 or EB148 (1 μM). In wash-out experiments, mitochondria were then centrifuged at 11.000 × g for 5 min, washed with fresh saline and suspended in JC-1 buffer not containing the drugs. At the end of treatments, 5 μg of control and treated mitochondria were added to the JC-1 dye. The fluorescence (relative fluorescence units, RFU) of the sample was read in a spectrofluorimeter using a time-drive method (one acquisition each 10 sec, for 10 min), where the excitation wavelength was set to 490 nm and emission wavelength at 590 nm. […] Consequently, mitochondrial depolarization is indicated by a decrease in the orange-red fluorescence intensity.

MDM2/p53 complex [5] = target: T2, MDM2/p53 complex (Homo sapiens, UniProt Q00987); experiment: Dissociation of native MDM2/p53 complex, sandwich immuno-enzymatic assay on U87MG cell lysates; format: biochemical
T2 construct: endogenous in cells; host or cells: crude lysates of U87MG human glioblastoma cells
Description: Cells were washed twice in ice-cold phosphate-buffered saline, collected by centrifugation, and suspended in lysis buffer (20 mM Tris HCl, 137 mM NaCl, 10% glycerol, 1% NONIDET40, 2 mM EDTA, pH 8) containing 1% of the Protease inhibitor Cocktail (Sigma Aldrich, Milan, Italy). 96-wells were pre-coated with a mouse full-length anti-MDM2 antibody (sc-965, Santa Cruz Biotechnology, 1:50 in 0.05% Poly-L-Ornithine) overnight at room temperature. Cell lysates (20 μg in a final volume of 100 μl) were pre-incubated with DMSO (control), or different compound concentration for 10 min at room temperature, and then transferred to the pre-coated wells for 60 min. After three quick washes with PBS/Tween 0.05% to remove unbound MDM2, each well was incubated for 15 min with 1% BSA, to block nonspecific sites, and then for 1.5 h at room temperature with a rabbit primary anti-p53 antibody (sc-6243, Santa Cruz Biotechnology, 1:250). Then, wells were washed and incubated for 1 h with an anti-rabbit HRP-conjugate antibody, and washed again. […] Blanks were obtained processing cell lysates in the absence of the primary anti-p53 antibody.

MDM2/p53 complex [6] = target: T2, MDM2/p53 complex; experiment: Association and dissociation kinetics towards MDM2 in U87MG cell lysates; format: biochemical; conditions: lysates treated at ten-fold IC50, diluted 1:20, 0-180 min
Description: Following incubation, cell lysates were captured on wells pre-coated with MDM2 antibody for an additional 60 min.
Dissociation was initiated by the addition of 20 volumes of cold buffer, and lysates were further incubated at 4°C for the indicated times (0-180 min). Following incubation, 200 μl of the mixture were captured on wells pre-coated with MDM2 antibody for an additional 60 min.

p53/MDM2 complex = target: T3, p53/MDM2 complex (Homo sapiens, UniProt Q00987); experiment: Levels of p53/MDM2 complex in U87MG whole cells (ELISA); format: cell-based
T3 construct: endogenous in cells; host or cells: U87MG human glioblastoma cells, treated whole and then lysed
Description: (§1) U87MG cells were treated with DMSO (control), EB148 or EB54 for different times. When indicated, after 8 h of incubation, cells were washed twice with fresh saline and cultured in drug-free medium for an additional 24 h. At the end of the treatment period, the cells were collected, and suspended in lysis buffer containing 1% of the Protease inhibitor Cocktail.

[7] = system: p53 target genes (p53, p21 and MDM2); experiment: Relative mRNA quantification of p53 target genes by real-time RT-PCR; format: cell-based, human; conditions: for levels of p53 target gene transcripts after wash-out: treated for 2 h (text; legend: 16 h), washed out for 16 h in drug-free medium
Description: In brief, total RNA was extracted from control cells as well as from cells treated with EB148 or EB54 (1 μM) for different times (8 h, 16 h or 24 h), using RneasyH Mini Kit (Qiagen, Hilden, Germany), according to manufacturer's instructions. cDNA synthesis was performed with 500 ng of RNA using i-Script cDNA synthesis kit (BioRad, Hercules, USA). RT-PCR reactions consisted of 25 μl FluocycleH II SYBRH (Euroclone, Milano, Italy), 1.5 μl of both 10 μM forward and reverse primers (listed in [56]), 3 μl cDNA, and 19 μL of H2O. […] PCR specificity was verified by both the melting curve analysis and gel electrophoresis.

p53 protein = p53 protein accumulation by western blotting; format: cell-based, human; conditions: for p53 protein levels after wash-out: 1 μM for 16 h, then wash-out of 16 h; for p53 protein levels: 1 μM, 16 h
Description: U87MG were treated with DMSO (control), EB148 or EB54 for 16 h. […] […] Glyceraldehyde-3-phosphate dehydrogenase (GAPDH) was the loading control ([…], Sigma Aldrich, Milan, Italy, 1:5000). The primary antibodies were detected using the appropriate peroxidase-conjugated secondary antibodies, which were then detected using a chemioluminescent substrate (ECL, Perkin Elmer). Densitometric analysis of the immunoreactive bands was performed using Image J Software.

ERK1/2 = ERK1/2 phosphorylation ELISA in U87MG cells; format: cell-based, human; conditions: for ERK1/2 phosphorylation: 1 μM, up to 8 h; for effect of blocking p53 on compound-mediated ERK1/2 activation: pifithrin-β 1 μM 30 min, then compound 1 μM 2 h
Description: Figure 10 ERK phosphorylation and levels of ERK/MDM2 complex in U87MG cells A. U87MG cells were treated with DMSO (control), 1 μΜ EB148 or 1 μΜ EB54 for the indicated times; in some experiments, after 2 h of treatment the medium was replaced by fresh medium not containing drugs for an additional 2 h. At the end of the treatment period the levels of ERK 1/2 phosphorylation were evaluated using ELISA kits, as described in the Methods section. The data are expressed as the percentage of phosphorylated ERK1/2 versus untreated cells (control), which were set at 100%. Data are the mean values ± SEM of three independent experiments performed in triplicate. Analysis of significant differences in mean ERK/MDM2 complex levels was performed using one-way ANOVA with a Bonferroni post-test: * p< 0.05, ** p< 0.01, *** p<0.001 vs. control. […] C. U87MG cells were treated with DMSO (control), 1 μΜ EB148 or 1 μΜ EB54 for the indicated times; in some experiments, after 8 h of treatment, the medium was replaced by fresh medium not containing drugs for an additional 24 h. At the end of the treatment period, U87MG cells were collected and suspended in lysis buffer. Equal amounts of cell lysates were captured on wells pre-coated with MDM2 antibody. After extensive washing, the levels of the ERK/MDM2 complex were quantified using an antibody specific for ERKs, and subsequently an HRP-conjugated antibody and a TMB substrate kit. Data are expressed as percentage of control set to 100%, and represent the mean ± SEM of three independent experiments. The significance of the differences was determined with a one-way ANOVA with Bonferroni post-test: * p<0.05, ** p<0.01, *** p<0.001 vs. control.

ERK/MDM2 complex = experiment: Levels of ERK/MDM2 complex in U87MG cells (ELISA); format: cell-based, human
Description: as §1

U87MG cells [8] = experiment: U87MG cell proliferation, MTS assay; format: cell-based, human; conditions: for cell proliferation 72 h after cell wash-out: U87MG, 72 h treatment, then drug-free medium 72 h
Description: The effects of compound treatment on U87MG cell viability and proliferation were evaluated by Trypan blue exclusion assays and MTS assay, respectively. […] For quantization of cell viability, blue and bright cells were counted, and viability was calculated as the number of living (bright) and dead (blue) cells in each well.
The absorbance of formazan at 490 nm was measured in a colorimetric assay with an automated plate reader (Victor Wallac 2, Perkin Elmer). For wash-out experiments, U87MG cells were treated with EB148 or EB54 (100 nM-10 μM) for 72 h. Following incubation, medium-containing drugs was replaced by fresh medium, and cells were allowed to growth for the indicated days. At the end of treatments, cell proliferation was measured by MTS assay. The results were calculated by subtracting the mean background from the values obtained from each evaluation and were expressed as the percentage of the control (untreated cells). Sigmoid dose-response curve was generated, from which the IC50 values were derived.

U87MG cells [9] = experiment: U87MG cell viability, trypan blue exclusion test; format: cell-based, human; conditions: 72 h, maximal effect at 100 μM
Description: The effects of compound treatment on U87MG cell viability and proliferation were evaluated by Trypan blue exclusion assays and MTS assay, respectively. U87MG cells were treated with EB148 or EB54 for 72 h. Following treatment, harvested cells were mixed with an equal volume of 0.4% trypan blue dye. For quantization of cell viability, blue and bright cells were counted, and viability was calculated as the number of living (bright) and dead (blue) cells in each well. To establish the effect of MDM2 inhibitors on cell proliferation, cells were treated for 72 h with different concentrations of each compound (0.1 nM–100 μM) for 72 h, and then MTS assay was performed according to the manufacturer's instructions.

[10] = system: mesenchymal Stem Cells (MSCs) isolated from human bone marrow; experiment: Toxicity in non-tumour cells, MSC proliferation by MTS assay; format: cell-based; conditions: 72 h; EB54 at 10 μM; EB148 up to the highest concentration tested
Description: […]. At the end of treatments, cell proliferation was measured by MTS assay.

U87MG cells [11] = experiment: Annexin V and 7-AAD staining (apoptosis); format: cell-based, human; conditions: 1 μM, 24 h
Description: Dual staining with Annexin V coniugated to fluorescein-isothiocyanate (FITC) and 7-amino-actinomysin (7-AAD) was performed using the commercially available kit (Muse Annexin V and Dead Cell Kit; Merck KGaA, Darmstadt, Germany).
U87MG cells were treated with DMSO (control), EB54 or EB148 (1 μM) for 24 h. Both floating and adherent cells were collected, and incubated for 10 min at room temperature with the fluorescent reagent. After incubation, the percentages of living, apoptotic and dead cells were acquired and analyzed by MuseTM Cell Analyzer in accordance to the manufacture's guidelines.

T1 sequence (P30536 whole entry): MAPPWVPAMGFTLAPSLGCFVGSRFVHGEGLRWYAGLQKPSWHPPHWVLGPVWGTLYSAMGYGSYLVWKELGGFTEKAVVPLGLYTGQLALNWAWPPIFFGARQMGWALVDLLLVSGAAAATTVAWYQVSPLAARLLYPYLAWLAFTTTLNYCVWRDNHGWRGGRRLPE
T2 sequence (Q00987 whole entry, one chain of several): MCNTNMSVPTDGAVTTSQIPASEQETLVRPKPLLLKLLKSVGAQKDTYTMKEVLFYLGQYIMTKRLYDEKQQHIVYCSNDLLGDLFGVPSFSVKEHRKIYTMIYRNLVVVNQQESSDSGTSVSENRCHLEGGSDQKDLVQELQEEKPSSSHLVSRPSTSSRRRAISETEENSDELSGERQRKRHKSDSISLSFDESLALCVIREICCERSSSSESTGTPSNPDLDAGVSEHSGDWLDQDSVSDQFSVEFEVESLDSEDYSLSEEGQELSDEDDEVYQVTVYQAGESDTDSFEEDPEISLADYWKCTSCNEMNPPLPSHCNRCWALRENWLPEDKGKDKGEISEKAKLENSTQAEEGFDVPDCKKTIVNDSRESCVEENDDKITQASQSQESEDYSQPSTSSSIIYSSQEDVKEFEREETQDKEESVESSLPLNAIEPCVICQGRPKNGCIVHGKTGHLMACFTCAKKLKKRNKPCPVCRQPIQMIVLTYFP
T3 sequence (Q00987 whole entry, one chain of several): as above

CCOC(=O)[C@@H](Cc1ccccc1)NC(=O)[C@H](CC(C)C)NC(=O)C(=O)c1c(-c2ccccc2)[nH]c2ccc(N=C=S)cc12 [EB148]
Ki (human TSPO [1]): 0.199 ± 0.018 µM
koff (human TSPO [2]): 8.01e-05 s⁻¹
kon (human TSPO [2]): 5350 M⁻¹ s⁻¹
Kd (human TSPO [2]): 0.15 µM
average peak area (stability in aqueous solution) [3]: 98.83 ± 0.47%
JC-1 accumulation (Δψm) compared to control untreated mitochondria [4]: significant reduction
Δψm after mitochondria wash-out ([4]; then centrifuged and washed to remove the ligands): determined Δψm collapse
IC50 (MDM2/p53 complex [5]): 0.00681 ± 0.00079 µM
activity in inhibiting p53-MDM2 complex after sample dilution (MDM2/p53 complex [6]): maintained unchanged
p53-MDM2 complex formation after 24 h cell wash-out (p53/MDM2 complex; 1 μM for 8 h, then 24 h wash-out): significantly lower than in the control
p53-MDM2 complex in whole cells (p53/MDM2 complex; 1 μM, 8 h): inhibited
induction of MDM2 mRNA ([7]; 1 μM, 8 h): 6.9 fold
induction of MDM2 mRNA ([7]; 1 μM, 16 h): 8.8 fold
induction of MDM2 mRNA ([7]; 1 μM, 24 h): 2.2 fold
mRNA expression of p53 target genes ([7]; 1 μM, up to 24 h of cell treatment): sustained increase
levels of p53 target gene transcripts after wash-out [7]: returned to control values
p53 protein levels after wash-out (p53 protein): maintained high p53 levels
p53 protein levels (p53 protein): slight but significant increase
ERK activation after cell wash-out (ERK1/2; 1 μM for 2 h, then drug-free medium for 2 h): continued to significantly activate
ERK1/2 phosphorylation (ERK1/2): significant ERK phosphorylation
effect of blocking p53 on compound-mediated ERK1/2 activation (ERK1/2): completely impaired
ERK/MDM2 association after cell wash-out (ERK/MDM2 complex; 1 μM for 8 h, then wash-out for 24 h): remained significant
ERK/MDM2 complex formation (ERK/MDM2 complex; 1 μM, 8 and 24 h): significant and marked induction
IC50 (U87MG cells [8]; Homo sapiens, U-87 MG, 72 h, read-out: IC50 of cell proliferation): 0.0916 ± 0.0089 µM
cell proliferation 72 h after cell wash-out (U87MG cells [8]): inhibition of cell proliferation was maintained
total number of living cells (U87MG cells [9]): reduced the total number of living cells
MSC viability/proliferation [10]: did not affect MSC proliferation
phosphatidylserine externalization (early and late apoptosis) (U87MG cells [11]): significant phoshpatidilserine externalization

CCOC(=O)[C@@H](Cc1ccccc1)NC(=O)[C@H](CC(C)C)NC(=O)C(=O)c1c(-c2ccccc2)[nH]c2ccccc12 [EB54]
Ki (human TSPO [1]): 0.108 ± 0.01 µM
koff (human TSPO [2]): 0.000482 s⁻¹
kon (human TSPO [2]): 3600 M⁻¹ s⁻¹
Kd (human TSPO [2]): 0.134 µM
JC-1 accumulation (Δψm) compared to control untreated mitochondria [4]: significant reduction
mRNA expression level of p21, p53 and MDM2 ([7]; 1 μM, 8 and 16 h): significant increase
mRNA expression of p21, p53 and MDM2 ([7]; 1 μM, after 24 h): significantly lower than controls
levels of p53 target gene transcripts after wash-out [7]: down-regulated
p53 protein levels after wash-out (p53 protein): control levels
p53 protein levels (p53 protein): slight but significant increase
ERK1/2 phosphorylation (ERK1/2): did not induce any significant ERK1/2 stimulation
effect of blocking p53 on compound-mediated ERK1/2 activation (ERK1/2): did not significantly affect
cell proliferation 72 h after cell wash-out (U87MG cells [8]): significant recovery in proliferative activity
total number of living cells (U87MG cells [9]): reduced the total number of living cells
MSC viability/proliferation [10]: significantly decreased
phosphatidylserine externalization (early and late apoptosis) (U87MG cells [11]): significant phoshpatidilserine externalization
